The record followed here is ChEMBL document CHEMBL1156257, “Antibacterial effect of some benzopyrone derivatives” (2010).

Assay type in all cases: functional
One experiment deals with Escherichia coli. As to the kind of experiment: Antibacterial activity against Escherichia coli XL-1 blue assessed as decrease in survival at 50 x 10^-6 M by turbidimetric method.
For experiment [1], the system named is Staphylococcus capitis. As to the kind of experiment: Antibacterial activity against Staphylococcus capitis ATCC 2784 assessed as decrease in survival at 50 x 10^-6 M by turbidimetric method.
Experiment [2] deals with Staphylococcus capitis. As to the kind of experiment: Antibacterial activity against Staphylococcus capitis ATCC 2784 assessed as decrease in survival at 0.5 M by turbidimetric method.
In experiment [3] the test system is Staphylococcus capitis. As to the kind of experiment: Antibacterial activity against Staphylococcus capitis ATCC 2784 assessed as decrease in survival at 1.3 M by turbidimetric method.

For the compound `Cc1cc(=O)c2c(O)c(/C=N/CCC/N=C/c3c(O)cc4oc(C)cc(=O)c4c3O)c(O)cc2o1`, the Activity with Escherichia coli is 35%; in the experiment on Staphylococcus capitis [1], 70%.

Regarding `COc1c(/C=N/CC/N=C/c2c(O)cc3oc(C)cc(=O)c3c2OC)c(O)cc2oc(C)cc(=O)c12`, the figures for the Activity in the experiment with Escherichia coli and with Staphylococcus capitis [1] were 54% and 40%, respectively.

With `COc1c(/C=N/CCC/N=C/c2c(O)cc3oc(C)cc(=O)c3c2OC)c(O)cc2oc(C)cc(=O)c12`, the Activity with Escherichia coli turned out to be 30%; in the experiment with Staphylococcus capitis [1], 55%.

As to `Cc1cc(=O)c2c(O)c(/C=N/CC/N=C/c3c(O)cc4oc(C)cc(=O)c4c3O)c(O)cc2o1`, the results for the Activity with Escherichia coli and in the experiment with Staphylococcus capitis [1] were 60% and 50%, respectively.

Consider `CN(C)C=O` [DIMETHYLFORMAMIDE], for which the results for the Activity with Staphylococcus capitis [2] and in the experiment on Staphylococcus capitis [3] were 10% and 80%, respectively.
